The values that follow are results of earlier work, collected in US7932083B2, “DNA participating in hydroxylation of macrolide compound” (priority 2003, dated 2011).

The conditions of the data set: statement of prior art (WO02/060890).

Turning to `CCC(O)C(C)C1OC1CC(C)(O)/C=C/C=C(\C)C1OC(=O)CC(O)CCC(C)(O)C(OC(C)=O)/C=C/C1C` (stereo not shown) [11107D], the antitumor activity entry was “excellent antitumor activity”.
